Data from patent US7718613B2, “Armed peptides” (priority 2001, dated 2010).
The star is where a group is joined. Biotin = O=C1N[C@H]2[C@H](CS[C@H]2CCCCC(=O)*)N1; Myristoyl = CCCCCCCCCCCCCC(=O)*

Tests used:
[1] = Cytolytic activity of pH-responsive peptides on calcein liposomes at different pH; conditions: liposomes 4 μM lipid; 14 nM peptide 2, 20 nM peptide 7, 45 nM peptide 9; FIG. 4
Procedure: Liposomes encapsulating calcein dye were prepared by an extrusion method (Biochim. Biophys. Acta, 812 (1985) 55). Phophatidylcholine (50 mg) and cholesterol (13.08 mg) which had been dissolved in 4 ml of 50% v/v chloroform methanol solution were evaporated to form a lipid film in a round bottom flask. If it is essential to follow the fate of liposomes a lipohilic-dye such as DiI (50 μg) could be incorporated into the lipid film prior to hydration. The film was then hydrated with 4 ml of 120 mM calcein solution prepared in 10 mM sodium phosphate 20 mM Sodium chloride buffer pH 7.4. Liposomes were formed by 10 extrusion cycles through 0.2 micron or 0.1 um polycarbonate filters using the Liposofast 100 (Avestin) extruder device. The non encapsulated dye was removed by gel filtration on a PD-10 column using iso-osmotic buffer. The total lipid concentration of the liposomes was measured by the Stewart assay and adjusted to 3 mg per ml.
The cytolytic activity of pH-responsive peptides was followed by adding 2 or 3 μl of liposomes to a 2 ml assay volume and continually recording fluorescence. Buffers were made of 10 mM Na phosphate, 140 mM NaCl, 1 mM EDTA, 5 mM HEPES at several different pH values. […] In the experiments 2 ml of 10 mM Na phosphate, 140 mM NaCl, 1 mM EDTA, 5 mM HEPES buffer (at pH values indicated on the figure) containing liposomes (4 μM lipid) and (A) 14 nM peptide 2, (B) 20 nM peptide 7 (C) 45 nM peptide 9. In all cases peptides were added indicated by sharp dip in fluorescence were used. The pH values are as indicated for each trace. […] In general, it is well documented that many proteins including receptors, enzymes and antibodies has pH optimum usually closer to physiological value. On either side of the pH optimum the binding activity is reduced. However in general as activity profile is typically bell shape most proteins would tolerate at least a pH unit shift from optimum. Obviously the closer the results are to pH 7.4 the higher chances their are for efficient binding with target proteins or receptors.

[2] = Liposome-peptide integral complex: pH-triggered calcein release and stability; conditions: complex tested 40 minutes from preparation; FIG. 9
Excerpt: A fatty acid incorporated on the N-terminal of peptide anchors the sequence with liposomes to form integral complex which can then be used as single stable reagent that can be triggered to release the contents-of the liposomoes when the pH is ideal (i.e physiological 7.4) or acidic (e.g 6.2). In the first instance we prepared the liposome-peptide complex at a predetermined ratio of lipid-to peptide (30:1) in pH 8 buffer using peptide 10. […] The complex between liposomes and peptide was formed by adding peptide to […] of 10 mM NaP containing 140 mM NaCl, 1 mM EDTA, 5 mM Hepes pH 8 buffer, containing 100 μl of calcein encapsulating liposomes. The mixture was incubated for 20 mins to form the complex prior to use. In order to ascertain that the lysis is occurring due to the formation of complex and not as the action of the peptide per se it was essential to purify the liposome-peptide complex. The peptide to lipid ratio in this complex is 1:30. The complex was applied to a Sepharose CL-6B column. Fractions corresponding to liposomes were collected as clearly visible to the eye. Aliquots of these fractions were then tested for lytic activity at acidic and physiological pH values. The key aim was to establish that the peptide is liposome associated and would thus be eluted with liposome fraction in the void volume. We used 100 μl complex (a column purified fraction) and followed the release of Calcein at two different pH values.
FIG. 8A. […] Upper curve pH 5.8. Lower curve pH 7.4.
2 ml buffer (10 mM Na phosphate, 140 mM NaCl, 1 mM EDTA, 5 mM HEPES)+50 μl purified complex. Lipsomes used were 50 nm extruded. Curves top to bottom are pH 6.2, 6.4, 6.7, 7.0, 7.4
Complex 20 μl liposomes+60 μl pH 8 buffer+20 μl peptide (0.1 mg/ml) prepared and used within 2 minutes. 10 μl was added to each of the cuvettes containing 2 ml buffers. Top curve pH 6.2 (triton was added towards the end indicated by sharp dip in fluorescence to check full lysis), the lower curve is at pH 7.4. Samples measured simultaneously.
5 μL of complex in 2 ml of buffer tested 20 minutes after preparation. Upper curve pH 6.2, Lower curve pH 7.4.
5 μL of complex in 2 ml of buffer tested 5 hrs after preparation. Upper curve pH 6.2 and lower curve pH 7.4.
5 μL of complex in 2 ml of buffer tested 24 hrs after preparation curve pH 6.2, Lower curve pH 7.4.

[3] = Detection of biotin by pH arming (avidin cloaking, calcein liposomes)
Excerpt: The modified peptide retained its activity and pH responsive properties upon modification with biotin. […] In FIG. 2, the curves from top to bottom represent (i) Peptide at pH 6.6, (ii) Peptide at pH 8 and (iii) background signal in the absence of any peptide. In FIG. 2A, the curves from top to bottom represent peptide in the presence of (i) 11 piccolos of biotin and 1,2 fold excess avidin at pH 6.6, (ii) 1.2 fold excess avidin at pH 6.6, (iii) 11 piccolos of biotin and 1.2 fold avidin at pH 8 and (iv) 1.2 fold excess avidin at pH 8.
The biotin assay using pH sensitive peptide was repeated in a glass vial which could be illuminated with a small torch or blue LED light source. Specifically, the vials contained 1.2 ml of biotinylated hybrid peptide (17 nM) in PBS buffer pH 6.2 containing calcein liposomes ([…]) and 1.2 fold excess avidin. Biotin was present in vials 3 to 6 in increasing concentration. Vials are as follows: (1) Background sample containing liposomes only, (2) no biotin, (3) 12 pmoles biotin, (4) 15 pmoles biotin, (5) 17 pmoles biotin, (6) 50 pmoles Samples were illuminated by simple 3 mm blue diodes from underneath the cuvettes. Photographs in the order top to bottom, were taken at indicated times from addition of liposomes. The actual fluorescence readings taken on a fluorimeter at five minute period are also shown graphically. Five minutes after the addition of all reagents the fluorescence became clearly visible to the naked eye compared to the background which remained low and constant allowing detection of 12 picomole of biotin rapidly without any instrumentation. (FIG. 3). However, instrumentation available in most laboratories (e.g., fluorescence, absorption, luminescence, electrochemical, biosensors), can also be used for quantitative analysis by changing the signal development molecules incorporated into the liposomes.
Peptides were prepared at concentrations ranging from 1 to 0.01 mg/ml, depending on the activity of peptide, in deionised. A stock solution of avidin (5 unit per ml, one unit of avidin binds 1 μg of biotin.) was prepared in PBS pH 7.4 buffer. Biotin, from a stock solution of 10 mg/ml prepared in DMSO, was diluted 10000 fold with water to obtain working concentrations of 1 μg/ml. A typical cytolytic assay was performed in a total volume of 2 ml PBS buffer containing calcein liposomes (5 μM lipid) as prepared above. The progress of dye leakage was continually followed using excitation and emission wavelengths of 490 and 520 nm respectively. Peptide of known concentrations-was added at certain time points and the solution was rapidly mixed while continuing to measure signal. For uncloaking the peptide activity using biotin, the additions were made to the buffer sequentially in the order avidin, 2 minute incubation with biotin followed by the addition of biotinylated peptide (44 nM). The mixture was incubated for filter 2 minutes and fluorescence measurement initiated. At selected time points liposomes (7 μM) were added and solution mixed. For the cloaking experiments the additions were essentially the same except no free biotin was added. The avidin concentration was a 1.2 fold excess units to ensure complete cloaking. For evaluating dual trigger switching properties of biotinylated peptide the liposomes (7 μM lipid) in 2 ml of buffer were treated with peptide. (2.8 nM) and fluorescence measured continually. For cloaking experiments and pH arming the peptide solution (2.8 nM) was incubated with a 1.2 fold excess of avidin solution for 3 minutes and the cytolytic assay performed at pH 6.6 and 8. For the uncloaking experiments the avidin was pre-incubated with 11 picomoles of biotin solution.
In the control sample, liposomes (4 μM lipid) were added to 1.2 ml solution of peptide (14 nM) pre-incubated with a 1.2 fold excess avidin. Test samples contained biotin at known concentrations. […]

Rif-1 allografts = assay: In vivo imaging of calcein release, dorsal window chamber with implanted tumours; parameters: species or system mice; conditions: for calcein fluorescence in tumour after armed complex relative to control liposomes: 100 μl complex via tail vein, untreated (No MIBG/glucose) mice, FIG. 10
Procedure: Similar methodology could be used for in vivo imaging of tumours whereby the payload is a marker or diagnostic reagent sequestered inside liposomes. For instance, when using the dye calcein, the pH released dye would be detected by increase in green fluorescence. […] Complex was prepared from biotinylated peptide (1) by adding 10 μl of pH 8 buffer to 41 μg of peptide to which was added 150 μl of Hposomes encapsulating calcein. The complex was incubated briefly and 100 μl was injected via the tail vein into mice with implanted tumours. The control mice were given equivalent levels of untreated liposomes. Using the dorsal window chamber model (Biophysics. 1997,1785-1790 & Nature Biotechnology 1999,17,1033-1035,) with implanted tumours (Rif-1 allografts) direct in vivo examination of the calcein in and around the tumours was made by fluorescence microscopy and computer controlled time-lapse images. […] Note that many tumours in animals and human, Rif-1 being one example, have an ambient pH that is slightly lower than that of normal tissue (Science 1980, 210,1253-1255 & Cancer Res 1989,4373-4384). This pathophysiological feature of tumours may be used for cancer detection. Thus unarming the complex which triggers below but close to physiological pH causes the release of dye almost immediately. This way the armed complexes can be used for in vivo detection of disease and particularly for the detection of cancer. Similarly, if the payload was combination of calcein dye and anticancer drug it would be possible to detect and treat with same formulation offering major advantages for diagnosis and treatment.

Substance	pH of triggering (pH profile of calcein release from liposomes) [1] [pH]	triggering of complex [2]	cloaking of the complex by avidin binding ([3]; 1.2 fold excess avidin)	release in the presence of analyte (biotin) and avidin at acidic pH ([3]; biotin, 1.2 fold excess avidin, pH 6.6)	release in the presence of analyte (biotin) and avidin at pH 8 ([3]; biotin, 1.2 fold excess avidin, pH 8)	amount of biotin detected by naked eye ([3]; glass vial, blue LED, five minutes, PBS pH 6.2, 1.2 fold excess avidin) [picomole]	activity of peptide-liposome complex at acidic pH ([3]; pH 6.6, FIG. 2)	activity of peptide-liposome complex at alkaline pH ([3]; pH 8, FIG. 2)	calcein fluorescence in tumour after armed complex relative to control liposomes (Rif-1 allografts)	calcein fluorescence in tumour after armed complex relative to control liposomes (Rif-1 allografts; listed as biotinylated peptide (1))	triggering pH relative to another peptide (Rif-1 allografts; mouse, in vivo)
Myr-EAALAEALAEALAEGKPALISWIRRRLQQ-amide (Myristoyl-EAALAEALAEALAEGKPALISWIRRRLQQ-NH2; SMILES CCCCCCCCCCCCCC(=O)N[C@@H](CCC(=O)O)C(=O)N[C@@H](C)C(=O)N[C@@H](C)C(=O)N[C@@H](CC(C)C)C(=O)N[C@@H](C)C(=O)N[C@@H](CCC(=O)O)C(=O)N[C@@H](C)C(=O)N[C@@H](CC(C)C)C(=O)N[C@@H](C)C(=O)N[C@@H](CCC(=O)O)C(=O)N[C@@H](C)C(=O)N[C@@H](CC(C)C)C(=O)N[C@@H](C)C(=O)N[C@@H](CCC(=O)O)C(=O)NCC(=O)N[C@@H](CCCCN)C(=O)N1CCC[C@H]1C(=O)N[C@@H](C)C(=O)N[C@@H](CC(C)C)C(=O)N[C@H](C(=O)N[C@@H](CO)C(=O)N[C@@H](Cc1c[nH]c2ccccc12)C(=O)N[C@H](C(=O)N[C@@H](CCCNC(=N)N)C(=O)N[C@@H](CCCNC(=N)N)C(=O)N[C@@H](CCCNC(=N)N)C(=O)N[C@@H](CC(C)C)C(=O)N[C@@H](CCC(N)=O)C(=O)N[C@@H](CCC(N)=O)C(N)=O)[C@@H](C)CC)[C@@H](C)CC) [peptide 2]	~7	–	–	–	–	–	–	–	–	–	–
Myr-GIGAVLRVLTTG(TLLEFLLEELLEFL)KPALISWIRRRQQ-Amide [peptide 7]	~7	–	–	–	–	–	–	–	–	–	–
Myristoyl-EAALAEALAEALAEGK(Biotin)PALISWIRRRLQQ-NH2 [peptide 1]	–	trigger in acidic media	efficiently cloaked	triggered	only slight release	12	active	inactive	significant release of payload	intense image	closer to physiological pH than peptide 9
